Several values for one entry are separate records, joined by “and”; a condition that tells them apart may be missing. Equal entries are not always repeated.
Tests used:
[1] = Lipophilicity (logP) by RP-TLC; settings: for chromatographic logP: RP-18 F254S TLC plates
Description: Lipophilicity is one of the most important physicochemical properties in pharmaceutical research. It can be considered a key determinant of the pharmacokinetic properties of a drug. It is commonly measured by the partition coefficient between water and n-octanol, being expressed as logP [14]. […] Knowledge of the partition coefficient is valuable: it is frequently used in structure–activity relationship (SAR) and quantitative structure–activity relationship (QSAR) studies. The experimental lipophilicity of the synthesized compounds, viz. benzylideneflavanones, benzylidenechromanones and spiropyrazolines, was determined using RP-TLC. […] It is important to examine the relationship between structure of the compound and its lipophilicity and cytotoxicity.
The RP-TLC experiments were performed on TLC plates (5 × 10 cm) RP-18 F254S (Merck, Darmstadt, Germany). The synthesized compounds were dissolved in N,N-dimethylformamide DMF (2 mg/mL). […] A DMF-water solvent system was used as mobile phase. […] All experiments were performed at room temperature. The logP parameter was calculated using the equation from the calibration curve.

NALM-6 cells = experiment: MTT cytotoxicity assay, NALM-6; format: cell-based, human; settings: 46 h + 2 h incubation
Protocol: (§1) The first stage of the study used the MTT viability test to determine the cytotoxicity of ten compounds, i.e., 3-arylidenechromanone, 3-arylideneflavanone, spirochromanone and spiro- flavanone analogues, against four human cancer cell lines: HL-60, NALM-6, WM-115 and COLO-205.
(§2) Cytotoxicity was tested against human skin melanoma cells (WM-115, ECACC, Salisbury, UK), two human leukemia cell lines, viz. promyelocytic leukemia (HL-60) and lymphoblastic leukemia (NALM-6), and human colon adenocarcinoma cells (COLO-205). The cell lines COLO-205, WM-115 and HL-60 used in this work came from the ATCC American Type Culture Collection (Manassas, VA, USA), whereas the NALM-6 cell line was purchased from the German Collection of Microorganisms and Cell Cultures (Braunschweig, Germany). The leukaemia cells and colon adenocarcinoma were cultured in RPMI 1640 medium (Invitrogen, Grand Island, NY, USA) supplemented with 10% fetal bovine serum (FBS; Invitrogen) and gentamicin (25 µg/mL; KRKA, Novo Mesto, Slovenia). For melanoma WM-115 cells, Dulbecco’s minimal essential medium (DMEM; Invitrogen) was used. All cell lines were cultured at 37 °C in a humidified atmosphere of 5% CO2 in air.
(§3) For all experiments, the studied compounds were dissolved in DMSO (Sigma-Aldrich) and were further diluted in culture medium to obtain <0.1% DMSO concentration. In each experiment, controls with and without 0.1% DMSO were performed. The cytotoxicity of all compounds and of the reference compounds 4-chromanone and 3-benzylideneflavanone was determined by the MTT assay, i.e., 3-(4,5-dimethylthiazol-2-yl)-2,5-diphenyltetrazolium bromide (Sigma, St. Louis, MO, USA), which measures cellular dehydrogenase activity. Exponentially growing cells were seeded a day before the experiment onto a 96-well microplates (Nunc, Roskilde, Denmark) at a density up to 6–8 × 10^3 cells/well (depending on the cell line). Subsequently, various concentrations of the studied compounds freshly prepared in DMSO and diluted with complete culture medium were added. All compounds were tested for their cytotoxicity at a final concentration of 10^−7–10^−3 M. After 46 h of incubation with the studied compounds, the cells were treated with the MTT reagent and incubation was continued for another two hours. MTT – formazan crystals were dissolved in 20% sodium dodecyl sulphate (SDS, Sigma-Aldrich) and 50% DMF (Sigma-Aldrich) at pH 4.7; following this, absorbance was read at 570 nm on a multifunctional Victor ELISA-plate reader (Perkin Elmer, Turku, Finland). The IC50 values, i.e., the concentration of the test compound required to reduce the cell survival fraction to 50% of controls, were calculated from concentration-response curves and used as a measure of the sensitivity of the cells to a given treatment. As a control, cultured cells were grown in the absence of drugs. The data points represent the means of at least five to ten repeats ± standard deviation (S.D.).

HL-60 cells [2] = experiment: MTT cytotoxicity assay, HL-60; format: cell-based, human; settings: MTT, 46 h + 2 h incubation
Protocol: as §1, §2, §3

WM-115 cells = experiment: MTT cytotoxicity assay, WM-115; format: cell-based, human; settings: 46 h + 2 h incubation
Protocol: as §1, §2, §3

COLO-205 cells = experiment: MTT cytotoxicity assay, COLO-205; format: cell-based, human; settings: 46 h + 2 h incubation
Protocol: as §1, §2, §3

HL-60 cells [3] = experiment: Cell cycle analysis by flow cytometry (propidium iodide); format: cell-based, human; settings: for cell cycle, G1, mean / cell cycle, G2/M, mean / cell cycle, S, mean: mean of n=2; for cell cycle distribution, G1 / cell cycle distribution, G2 / cell cycle distribution, G2/M: HL-60, 20 h, mean ± SD, n = 2
Protocol: The next stage examined the effects of the selected compounds on cell cycle progression in HL-60 leukemia cells. […] One million HL-60 (subline CCL 240; cell type: promyeloblast) cells in 3 mL of RPMI 1640 supplemented with 20% FBS were seeded on 6-well plate. […] Fixed cells were stored in −20 °C for 2–3 days. Before analysis, cells were centrifuged (10 min, 1500 rpm, 4 °C) and washed twice with cold PBS. After the second wash, the cells were suspended in 1mL of PBS containing 100 μg of RNase A and incubated in 37 °C for 10 min. Next, 5 μL of solution of propidium iodide (1 mg/mL) was added to each sample and incubated in dark for 30 min at RT. Stained cells were analyzed by flow cytometry (FACS Calibur, BD Biosciences, San Jose, CA, USA). Data from 10,000 gated cells were collected using CellQuestPro software (Ver 6.0, Becton Dickinson) and cell cycle analysis was performed with ModFit LT software (Ver 3.2, Verity Software House, Topsham, ME, USA).

erythrocytes = experiment: Red blood cell morphology (phase-contrast microscopy); format: cell-based; settings: 2% erythrocyte suspension, 37 °C, 1 h, phase contrast 400×
Protocol: Studies on erythrocyte morphology complement the erythrotoxicity studies because they provide information on potential immediate interactions of the tested compounds with the erythrocyte lipid bilayer, and the possibility of creating pathological forms of erythrocytes, which are not able to carry oxygen. The effects of the synthesized compounds, and the two reference compounds chromanone and flavanone, on the morphology of erythrocytes is shown in Figure 6. Briefly, 2% RBC suspension was incubated with 0.9% NaCl (control samples) or tested compounds at various concentrations corresponding to their activity towards cancer cell lines.
A 2% erythrocyte suspension was incubated at 37 °C for one hour with various concentrations of synthesized compounds. The morphology of the RBCs was examined by means of a phase contrast Opta-Tech inverted microscope, at 400× magnification, equipped with software (OptaView 7) for image analysis.

[4] = Homo sapiens, NALM-6, 48 h, MTT
[5] = Homo sapiens, WM-115, 48 h, MTT
[6] = Figure S3, HL-60, 0.5 × IC50 (µM: quercetin 29, 1 1.5, 7 18, 10 4.7, 11 4.5, 12 6)
[7] = Figure S3, HL-60, 0.5 × IC50, each of two repetitions
[8] = Figure S3, HL-60, 1 × IC50 (µM in parenthesis: quercetin 58, 1 3, 7 35, 10 9.4, 11 9, 12 12)
[9] = Figure S3, HL-60, 1 × IC50 (µM: quercetin 58, 1 3, 7 35, 10 9.4, 11 9, 12 12)
[10] = Figure S3, HL-60, 1 × IC50, each of two repetitions
[11] = 0.5 × IC50 (µM: quercetin 29, 2 1.5, 7 18, 12 6, 11 4.5, 10 4.7)
[12] = 1 × IC50 (µM: quercetin 58, 2 3, 7 35, 12 12, 11 9, 10 9.4)

Compound | IC50 (NALM-6 cells; MTT) [µM] | IC50 (HL-60 cells [2]) [µM] | IC50 (WM-115 cells; MTT) [µM] | IC50 (COLO-205 cells) [µM] | chromatographic logP [1] | IC50 (NALM-6 cells; [4]) [µM] | IC50 (HL-60 cells [2]; Homo sapiens, HL-60, 48 h) [µM] | IC50 (WM-115 cells; [5]) [µM] | cell cycle, G1, mean (HL-60 cells [3]; [6]) | cell cycle, G2/M, mean (HL-60 cells [3]; [6]) | cell cycle, S, mean (HL-60 cells [3]; [6]) | cell cycle, G2/M, single repetitions (HL-60 cells [3]; [7]) | cell cycle, S, single repetitions (HL-60 cells [3]; [7]) | cell cycle, G1, mean (HL-60 cells [3]; [8]) | cell cycle, G2/M, mean (HL-60 cells [3]; [9]) | cell cycle, S, mean (HL-60 cells [3]; [9]) | cell cycle, G2/M, single repetitions (HL-60 cells [3]; [10]) | cell cycle, S, single repetitions (HL-60 cells [3]; [10]) | IC50 (COLO-205 cells; Homo sapiens, COLO 205, 48 h) [µM] | erythrocyte morphology (in words) (erythrocytes) | further results
N.N.O=C([O-])C1(C(=O)[O-])CCC1.[Pt+2] [Carboplatin, reference compound] | 0.7 ± 0.2 | 4.3 ± 1.3 | 422 ± 50.2 | 355 ± 73.7 |  |  |  |  |  |  |  |  |  |  |  |  |  |  |  |  | logP ([1]; RP-TLC, DMF-water mobile phase, room temperature): −2.30
N.N.[Cl][Pt][Cl] [Cisplatin, reference compound] | 0.7 ± 0.3 | 0.8 ± 0.1 | 18.2 ± 4.3 | 61.5 ± 3.2 |  |  |  |  |  |  |  |  |  |  |  |  |  |  |  |  | 
COc1ccc(/C=C2/C(=O)c3ccccc3OC2c2ccccc2)cc1 (centres unmarked) [Compound 1, (E)-3-(4-methoxybenzylidene)-2-phenylchroman-4-one] |  |  |  |  | 4.79 | 49.8 ± 2.35 | 53.4 ± 2.49 | 58.1 ± 4.93 | 23,52% | 53,45% | 23,04% | 39,74% and 67,16% | 21,38% and 24,69% | 21,31% | 53,71% | 25,02% | 68,86% and 38,56% | 17,63% and 32,40% | 51 ± 2.3 | extensive formation of echinocytes and anisocytes | 
O=C1/C(=C/c2ccccc2)C(c2ccccc2)Oc2ccccc21 (centres unmarked) [Compound 5, (E)-3-benzylidene-2-phenylchroman-4-one] |  |  |  |  | 4.9 | 27 ± 3.1 | 33.7 ± 3.87 | 47.4 ± 4.62 |  |  |  |  |  |  |  |  |  |  | 77.1 ± 1.9 | echinocytes accounted for the major part of erythrocytes | 
COc1cccc(/C=C2/C(=O)c3ccccc3OC2c2ccccc2)c1 (centres unmarked) [Compound 9, (E)-3-(3-methoxybenzylidene)-2-phenylchroman-4-one] |  |  |  |  | 5.83 | 15.7 ± 6.23 | 35.9 ± 2.96 | 16.9 ± 3.78 |  |  |  |  |  |  |  |  |  |  | 170 ± 3.81 | echinocytes accounted for the major part of erythrocytes | 
O=c1c(O)c(-c2ccc(O)c(O)c2)oc2cc(O)cc(O)c12 [Quercetin, reference compound] |  |  |  |  |  |  | 58 ± 4 |  | 14,26% | 60,76% | 24,99% | 60,50% and 61,01% | 23,57% and 26,40% | 11,59% | 49,04% | 39,38% | 46,07% and 52,00% | 41,15% and 37,60% |  |  | IC50 (NALM-6 cells; Homo sapiens, NALM-6, MTT): 77.1 ± 7.8 µM; IC50 (WM-115 cells; Homo sapiens, WM-115, MTT): 178 ± 21.5 µM; cell cycle, G1, single repetitions (HL-60 cells [3]; [7]): 12,59% and 15,93%; cell cycle, G1, single repetitions (HL-60 cells [3]; [10]): 12,78% and 10,40%; cell cycle distribution, G1 (HL-60 cells [3]; [11]): 14.3 ± 2.4%; cell cycle distribution, G2 (HL-60 cells [3]; [11]): 25.0 ± 2.0%; cell cycle distribution, G2/M (HL-60 cells [3]; [11]): 60.8 ± 0.4%; cell cycle distribution, G1 (HL-60 cells [3]; [12]): 11.6 ± 1.7%; cell cycle distribution, G2 (HL-60 cells [3]; [12]): 39.4 ± 2.5%; cell cycle distribution, G2/M (HL-60 cells [3]; [12]): 49.0 ± 4.2%; cells arrested in G2/M phase (HL-60 cells [3]; HL-60, concentrations of IC50 and 0.5 × IC50): 50–60%

— publication PMC7180617, “Biological Evaluation of 3-Benzylidenechromanones and Their Spiropyrazolines-Based Analogues” (Molecules, 2020)
